The values below come from patent publication US20230117286A1, “PHARMACEUTICAL COMPOSITION FOR PREVENTION OR TREATMENT OF NONALCOHOLIC STEATOHEPATITIS” (DONG-A ST CO., LTD., priority 2020, published 2023).

In assay [1] the test system is mouse model with induced nonalcoholic steatohepatitis. As to the kind of experiment: Galectin-3 immunostaining in liver tissues, NASH mice. It counts as in vivo, C57BL/6J mouse. Particulars: administered alone, compound 1 100 mg/kg/day. How it is done: (§1) A six-weeks-old male C57BL/6J mouse was fed with a special feed of high fat, high fructose, and high cholesterol (Research Diet, D09100301) for at least 27 weeks, and thus was induced to develop nonalcoholic steatohepatitis. After that, compound 1 was administered alone or in combination so that a daily dose reached 100 mg/kg/day. As the DPPIV inhibitor, evogliptin at 200 mg/kg/day or sitagliptin at 150 mg/kg/day was administered alone or in combination. As the PPAR agonist, elafibranor was administered alone or in combination so as to reach 30 mg/kg/day. As a method of administration alone or in combination, the above-described compound 1, DPPIV inhibitor, and/or PPAR agonist were prepared as a drug-diet admixture and supplied for 8 to 12 weeks.
To compare the degree of infiltration of inflammatory cells in liver tissues, an expression level of galectin-3, an indicator of increased expression in activated macrophages, was measured through immunostaining. After that, a ratio of the area stained by the galectin-3 antibody in the unit area was calculated through image analysis so as to evaluate the medicinal efficacy of ameliorating inflammation according to the co-administration.

The test system is the same in assay [2]. As to the kind of experiment: Relative proportion of lipid droplets in liver tissues (image analysis of HE-stained tissue), NASH mice. It counts as in vivo, C57BL/6J mouse. To be noted: for relative area of lipid droplets in liver tissues / ratio of fat (lipid droplets area) in liver tissues: compound 1 100 mg/kg/day, alone or in combination; for relative area of lipid droplets in liver tissues: evogliptin 200 mg/kg/day; for ratio of fat (lipid droplets area) in liver tissues: FIG. 5, elafibranor 30 mg/kg/day. How it is done: as §1
For quantitative comparison of fat accumulation in liver tissues, the HE-stained tissues were subjected to an image analysis to calculate a relative proportion of lipid droplets per unit area, thereby evaluating a medicinal efficacy of co-administration.

Assay [3] has the same test system. Nature of the assay: αSMA immunostaining in liver tissues, NASH mice. It counts as in vivo, C57BL/6J mouse. Particulars: administered alone, compound 1 100 mg/kg/day. Here is the method: as §1
To evaluate the effectiveness on fibrosis, an expression of a smooth muscle actin (αSMA) in a liver tissue section was measured through immunostaining so as to compare the ratio of activated stellate cells. After that, a ratio of the area stained by the αSMA antibody in the unit area was calculated through image analysis.

Assay [4] concerns human monocyte cell line (THP-1). As to the kind of experiment: Inflammatory cytokine secretion during differentiation of human monocytes into macrophages (PMA, then LPS). It counts as cell-based. Particulars: FIG. 12; THP-1, PMA 50 ng/ml 48 hours, LPS 0.5 ng/ml four hours; compound 1 alone. How it is done: A human monocyte cell line (THP-1, ATCC® TIB-202™) was treated with 50 ng/ml of phorbol 12-myristate 13-acetate (PMA) for 48 hours and differentiated into macrophages, while being treated with compound 1 in combination with elafibranor as a PPAR agonist, firsocostat as an ACC inhibitor, obeticholic acid as a FXR agonist or cenicriviroc as a CCR2/5 dual antagonist, then replaced with a serum-free medium, and then treated with lipopolysaccharides (LPS; 0.5 ng/ml) for four hours, after which […], tumor necrosis factor α (TNFα; R&D Systems, DY210), and C—C motif chemokine ligand 2 (CCL2; R&D Systems, DY279), which are inflammatory cytokines secreted into the medium, were quantified with a commercially available ELISKA kit, so as to evaluate an effect on monocyte differentiation, and the results thereof are shown in FIG. 12.

Assay [5] relates to Primary human hepatic stellate cells. Nature of the assay: Pro-collagen 1a1 expression in TGFβ1-activated primary human hepatic stellate cells. It counts as cell-based. Particulars: FIG. 13, TGFβ1 5 ng/ml, 18 hours; for protein expression of pro-collagen 1a1 induced by TGFβ1: each drug treated alone. Here is the method:
Primary human hepatic stellate cells (ScienCell, #5300) were stabilized for 24 hours, then cultured in a serum-free medium for 24 hours, and then treated with compound 1 in combination with elafibranor as a PPAR agonist, firsocostat as an ACC inhibitor, or obeticholic acid as a FXR agonist together with 5 ng/ml of recombinant […] (TGFβ1), after which the resulting cells were harvested in 18 hours later and an amount of pro-collagen 1a1 in total cell proteins was quantified with a commercialized ELISKA Kit (R&D Systems, DY6220), while an amount of total cell proteins was quantified and corrected by a BCA method, and the results of calculating a concentration response curve of each drug and a concentration (IC30) showing 30% inhibitory activity are shown in FIG. 13.
When compound 1 was treated in combination with the PPAR agonist or the ACC inhibitor, the CI was calculated to be 0.7 and 0.6, which was smaller than 1, thus confirming a synergistic effect. And the CI was calculated to be 1 when treated in combination with the FXR agonist, thus confirming an additive effect.

The test system of assay [6] is mouse model with induced nonalcoholic steatohepatitis. As to the kind of experiment: Plasma inflammation and fibrosis-related proteins (ELISA), NASH mice. It counts as in vivo, C57BL/6J mouse. To be noted: FIG. 10. How it is done:
as §1
To evaluate an effect on concentration of inflammation (CCL2, CXCl10, CXCl2, IL2 and TNFα) and fibrosis-related protein (TIMP1) in plasma, a concentration of CCL2, CXCl10, CXCl2, IL2, TNFα (MSD, K15255D-1) and TIMP1 (R&D Systems, MTM100) proteins in the plasma obtained from the mouse model was quantified by using a commercially available ELISA kit.
Background: ELISA stands for enzyme-linked immunosorbent assay.

For assay [7] the test system is unchanged. As to the kind of experiment: Blood AST and ALT, NASH mice. It counts as in vivo, C57BL/6J mouse. To be noted: FIG. 11; compound 1 100 mg/kg/day, evogliptin 200 mg/kg/day, alone or in combination; combination compared to both drugs alone. How it is done:
as §1
The mouse model with induced nonalcoholic steatohepatitis was subjected to autopsy, after which plasma was isolated therefrom, so as to quantify aspartate aminotransferase (AST) and alanine aminotransferase (ALT) by using an automatic blood analyzer (Konelab 20i).

The test system is the same in assay [8]. As to the kind of experiment: NAFLD activity score (HE histology) in mouse model with nonalcoholic steatohepatitis. It counts as in vivo, C57BL/6J mouse. To be noted: administered alone, compound 1 100 mg/kg/day, compared to before treatment. Here is the method:
as §1
For a histological examination, liver tissues were isolated through biopsy and autopsy from the mouse model with induced nonalcoholic steatohepatitis prepared above before and after drug administration and were fixed in 10% formalin so as to prepare a paraffin block and obtain a 2 μm thick tissue section. After that, hematoxylin and eosin (HE) stain was performed by using an automatic stainer (Autostainer XL, Leica) in order to confirm an infiltration of inflammatory cells. A ratio of lipid droplets deposited in the stained liver tissues, a degree of infiltration of inflammatory cells and a degree of cell necrosis were expressed as NAFLD activity scores (NAS), and the results thereof are shown in FIGS. 2 and 3.

The mark [9] stands for this setting: FIG. 6, evogliptin 200 mg/kg/day.
Setting [10] is: FIG. 7, elafibranor 30 mg/kg/day.
[11] abbreviates: FIG. 8, evogliptin 200 mg/kg/day.
Where [12] appears, read: FIG. 9, elafibranor 30 mg/kg/day.
Setting [13] is: NASH mice, compound 1 alone 100 mg/kg/day.
Where [14] appears, read: compound 1 100 mg/kg/day alone or combined with sitagliptin 150 mg/kg/day.
The mark [15] stands for this setting: FIG. 2, evogliptin 200 mg/kg/day, drug-diet admixture 8 to 12 weeks.
The mark [16] stands for this setting: FIG. 3, elafibranor 30 mg/kg/day.

For `CCc1cnc(N2CCC(CCCOc3cc(F)c(-c4noc(C(C)C)n4)c(F)c3)CC2)nc1` [compound 1, 3-(4-(3-(1-(5-ethylpyrimidin-2-yl)piperidin-4-yl)propoxy)-2,6-difluorophenyl)-5-isopropyl-1,2,4-oxadiazole], the “expression of galectin-3 in liver tissues” value in assay [1] (setting [9]) was “significantly reduced”. Besides, in assay [1] (setting [10]), the “expression of galectin-3 in liver tissues” value was “significantly decreased”. For the same molecule, the “relative area of lipid droplets in liver tissues” value in assay [2] (FIG. 4) is reported as “significantly reduced”. The “size of lipid droplets in liver tissues” value in assay [2] (FIG. 4, compound 1 alone 100 mg/kg/day) is listed as “decreased”. For the same molecule, the “ratio of fat (lipid droplets area) in liver tissues” value in assay [2] is “significantly reduced”. Besides, in assay [3] (setting [11]), the “expression of αSMA in liver tissues” value is listed as “significantly reduced”. Also, the “expression of αSMA in liver tissues” value in assay [3] (setting [12]) is “significantly reduced”. In addition, in assay [4], the CCL2 secretion result was “decreased in a concentration-dependent manner”, the IL-1β secretion entry is “decreased in a concentration-dependent manner” and the TNFα secretion result is “decreased in a concentration-dependent manner”. For the same molecule, the “protein expression of pro-collagen 1a1 induced by TGFβ1” value (“protein expression” for short) in assay [5] is “inhibited in a concentration-dependent manner”. Further, the “30% inhibitory concentration (IC30), pro-collagen 1a1” value in assay [5] (treated alone) worked out at 550 nM. Besides, in assay [6] (setting [13]), the “plasma concentration of CCL2” value is on record as “significantly decreased”, the “plasma concentration of CXCl2” value is on record as “significantly decreased” and the “plasma concentration of CXCl10” value is on record as “significantly decreased”. In assay [6] (setting [14]), the “plasma IL2” value is “tendency of decreasing” and the “plasma TNFα” value was “tendency of decreasing”. Besides, the “plasma TIMP1” value in assay [6] (compound 1 alone 100 mg/kg/day) was “significantly decreased”. In assay [7], the “plasma concentration of ALT” value is on record as “significantly reduced” and the “plasma concentration of AST” value is on record as “significantly reduced”. For the same molecule, the “NAFLD activity score (NAS)” value in assay [8] (setting [15]) is listed as “significantly improved”. The “NAFLD activity score (NAS)” value in assay [8] (setting [16]) is on record as “significantly improved”.
On to `CSc1ccc(C(=O)/C=C/c2cc(C)c(OC(C)(C)C(=O)O)c(C)c2)cc1` [elafibranor, reference compound], for which, in assay [1] (setting [10]), the “expression of galectin-3 in liver tissues” value is reported as “no effect of significantly decreasing”. Further, in assay [2], the “ratio of fat (lipid droplets area) in liver tissues” value is given as “significantly reduced”. Further, in assay [3] (setting [12]), the “expression of αSMA in liver tissues” value was “no effect of significantly reducing”. Further, in assay [5], the “protein expression” value is reported as “relatively low response”. Also, in assay [8] (setting [16]), the “NAFLD activity score (NAS)” value is recorded as “significantly improved”.
Turning to `CC(C)(C)OC[C@@H]1C(=O)NCCN1C(=O)C[C@H](N)Cc1cc(F)c(F)cc1F` [evogliptin, reference compound], the “expression of galectin-3 in liver tissues” value in assay [1] (setting [9]) was “significantly reduced”. In addition, the “relative area of lipid droplets in liver tissues” value in assay [2] (FIG. 4) is “tendency of decreasing”. Also, in assay [3] (setting [11]), the “expression of αSMA in liver tissues” value is “significantly reduced”. For the same molecule, in assay [7], the “plasma concentration of ALT” value is “significantly reduced” and the “plasma concentration of AST” value is listed as “significantly reduced”. Also, in assay [8] (setting [15]), the “NAFLD activity score (NAS)” value was “insignificant”.
For `COc1ccccc1[C@H](Cn1c(=O)n(C(C)(C)C(=O)O)c(=O)c2c(C)c(-c3ncco3)sc21)OC1CCOCC1` [firsocostat, reference compound], the “protein expression” value in assay [5] is “relatively low response”.
